Measurements published in PubChem BioAssay (NCI).
Values joined by “and” are separate entries in the source; they are usually repeats but may differ in a detail not shown here. Equal entries are not always repeated.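 Tested at 5 concentrations; 48 h exposure; 96-well plates; endpoints linearly interpolated, else capped at highest concentration. At the GI50, growth is halved. TGI is the concentration that stops growth completely.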

Experiments:
Experiment in all cases: growth of human tumour cells (NCI), 48 h
786-0 renal = test system: 786-0 renal
A498 renal = test system: A498 renal
A549 NSCLC = test system: A549 NSCLC
ACHN renal = test system: ACHN renal
CAKI-1 renal = test system: CAKI-1 renal
CCRF-CEM leukemia = test system: CCRF-CEM leukemia
COLO 205 colon = test system: COLO 205 colon
DLD-1 colon = test system: DLD-1 colon
EKVX NSCLC = test system: EKVX NSCLC
HCC-2998 colon = test system: HCC-2998 colon
HCT-116 colon = test system: HCT-116 colon
HCT-15 colon = test system: HCT-15 colon
HOP-62 NSCLC = test system: HOP-62 NSCLC
HOP-92 NSCLC = test system: HOP-92 NSCLC
HT29 colon = test system: HT29 colon
K-562 leukemia = test system: K-562 leukemia
KM20L2 colon = test system: KM20L2 colon
LXFL 529 NSCLC = test system: LXFL 529 NSCLC
M19-MEL melanoma = test system: M19-MEL melanoma
MOLT-4 leukemia = test system: MOLT-4 leukemia
OVCAR-3 ovarian = test system: OVCAR-3 ovarian
OVCAR-4 ovarian = test system: OVCAR-4 ovarian
OVCAR-5 ovarian = test system: OVCAR-5 ovarian
SF-268 CNS = test system: SF-268 CNS
SF-539 CNS = test system: SF-539 CNS
SK-MEL-28 melanoma = test system: SK-MEL-28 melanoma
SK-MEL-5 melanoma = test system: SK-MEL-5 melanoma
SK-OV-3 ovarian = test system: SK-OV-3 ovarian
SN12C renal = test system: SN12C renal
SNB-78 CNS = test system: SNB-78 CNS
SW-620 colon = test system: SW-620 colon
TK-10 renal = test system: TK-10 renal
UACC-257 melanoma = test system: UACC-257 melanoma
UACC-62 melanoma = test system: UACC-62 melanoma
XF 498 CNS = test system: XF 498 CNS
DMS 273 small cell lung = test system: DMS 273 small cell lung
HL-60(TB) leukemia = test system: HL-60(TB) leukemia
IGROV1 ovarian = test system: IGROV1 ovarian
KM12 colon = test system: KM12 colon
LOX IMVI melanoma = test system: LOX IMVI melanoma
M14 melanoma = test system: M14 melanoma
NCI-H226 lung = test system: NCI-H226 lung
NCI-H23 lung = test system: NCI-H23 lung
NCI-H460 lung = test system: NCI-H460 lung
NCI-H522 lung = test system: NCI-H522 lung
OVCAR-8 ovarian = test system: OVCAR-8 ovarian
RPMI-8226 leukemia = test system: RPMI-8226 leukemia
RXF 393 renal = test system: RXF 393 renal
SF-295 CNS = test system: SF-295 CNS
SK-MEL-2 melanoma = test system: SK-MEL-2 melanoma
SNB-19 CNS = test system: SNB-19 CNS
SNB-75 CNS = test system: SNB-75 CNS
SR leukemia = test system: SR leukemia
U251 CNS = test system: U251 CNS
UO-31 renal = test system: UO-31 renal

Compound: CCCCCC(=O)N[C@H]1CCc2cc(OC)c(OC)c(OC)c2-c2ccc(SC)c(=O)cc21
- TGI (786-0 renal): 11.6 µM
- TGI (A498 renal): 0.0449 µM
- TGI (A549 NSCLC): > 100 µM
- TGI (ACHN renal): 36 µM
- TGI (CAKI-1 renal): > 100 µM
- TGI (CCRF-CEM leukemia): 34.8 µM
- TGI (COLO 205 colon): 0.0285 µM
- TGI (DLD-1 colon): > 100 µM
- TGI (EKVX NSCLC): > 100 µM
- TGI (HCC-2998 colon): 0.0549 µM
- TGI (HCT-116 colon): 0.0913 µM and 0.0136 µM
- TGI (HCT-15 colon): 0.0646 µM
- TGI (HOP-62 NSCLC): 49.7 µM
- TGI (HOP-92 NSCLC): 1.17 µM
- TGI (HT29 colon): 0.0755 µM and 0.131 µM
- TGI (K-562 leukemia): 11.2 µM
- TGI (KM20L2 colon): 0.0354 µM
- TGI (LXFL 529 NSCLC): 17.3 µM
- TGI (M19-MEL melanoma): 50.7 µM
- TGI (MOLT-4 leukemia): > 100 µM
- TGI (OVCAR-3 ovarian): 0.0354 µM
- TGI (OVCAR-4 ovarian): > 100 µM
- TGI (OVCAR-5 ovarian): > 100 µM
- TGI (SF-268 CNS): 24.1 µM
- TGI (SF-539 CNS): 0.0374 µM
- GI50 (SK-MEL-28 melanoma): 25.1 µM
- TGI (SK-MEL-28 melanoma): > 100 µM
- TGI (SK-MEL-5 melanoma): 0.0484 µM
- TGI (SK-OV-3 ovarian): 0.0811 µM
- TGI (SN12C renal): 19 µM
- TGI (SNB-78 CNS): > 100 µM
- TGI (SW-620 colon): > 100 µM
- TGI (TK-10 renal): 32.9 µM
- TGI (UACC-257 melanoma): 33.4 µM
- TGI (UACC-62 melanoma): 29.3 µM
- TGI (XF 498 CNS): 6.04 µM

Compound: CN(C)C(=O)Nc1c([N+](=O)[O-])cc(C(F)(F)F)cc1[N+](=O)[O-]
- TGI (786-0 renal): > 100 µM
- TGI (A498 renal): > 100 µM
- TGI (A549 NSCLC): > 100 µM
- TGI (ACHN renal): > 100 µM
- TGI (CAKI-1 renal): > 100 µM
- TGI (CCRF-CEM leukemia): > 100 µM
- TGI (COLO 205 colon): 69.3 µM
- TGI (DMS 273 small cell lung): > 100 µM
- TGI (EKVX NSCLC): > 100 µM
- TGI (HCT-116 colon): > 100 µM
- TGI (HCT-15 colon): > 100 µM
- TGI (HL-60(TB) leukemia): 48 µM
- TGI (HOP-62 NSCLC): > 100 µM
- TGI (HOP-92 NSCLC): > 100 µM
- TGI (HT29 colon): > 100 µM
- TGI (IGROV1 ovarian): > 100 µM
- TGI (K-562 leukemia): > 100 µM
- TGI (KM12 colon): > 100 µM
- TGI (KM20L2 colon): 59.3 µM
- TGI (LOX IMVI melanoma): > 100 µM
- TGI (LXFL 529 NSCLC): > 100 µM
- TGI (M14 melanoma): > 100 µM
- TGI (MOLT-4 leukemia): > 100 µM
- TGI (NCI-H226 lung): > 100 µM
- TGI (NCI-H23 lung): > 100 µM
- TGI (NCI-H460 lung): > 100 µM
- TGI (NCI-H522 lung): 77.5 µM
- TGI (OVCAR-3 ovarian): 53.7 µM
- TGI (OVCAR-4 ovarian): > 100 µM
- TGI (OVCAR-5 ovarian): > 100 µM
- TGI (OVCAR-8 ovarian): > 100 µM
- TGI (RPMI-8226 leukemia): > 100 µM
- TGI (RXF 393 renal): > 100 µM
- TGI (SF-268 CNS): > 100 µM
- TGI (SF-295 CNS): > 100 µM
- TGI (SF-539 CNS): > 100 µM
- TGI (SK-MEL-2 melanoma): > 100 µM
- TGI (SK-MEL-28 melanoma): > 100 µM
- TGI (SK-MEL-5 melanoma): > 100 µM
- TGI (SK-OV-3 ovarian): > 100 µM
- TGI (SN12C renal): > 100 µM
- TGI (SNB-19 CNS): > 100 µM
- TGI (SNB-75 CNS): > 100 µM
- TGI (SNB-78 CNS): > 100 µM
- TGI (SR leukemia): > 100 µM
- TGI (SW-620 colon): > 100 µM
- TGI (TK-10 renal): > 100 µM
- TGI (U251 CNS): > 100 µM
- TGI (UACC-257 melanoma): 84.3 µM
- TGI (UACC-62 melanoma): > 100 µM
- TGI (UO-31 renal): > 100 µM
- TGI (XF 498 CNS): 80.8 µM
